# In patent US9149547B2, “Process for production of heterodimers of glutamic acid” (Molecular Insight Pharmaceuticals, Inc., priority 2009, dated 2015):
# How the values were obtained:
# [1] = Stability at room temperature, free I-123 content quantitated by HPLC; assay type: physicochemical
# Experimental: Stability Results: Stability was evaluated for up to 2 days at room temperature by quantitation of free 1-123 content present by HPLC. The stability was determined at room temperature in an attempt to accelerate any product degradation to more rapidly assess the effectiveness of each radioprotectants in the formulation matrix.
# [2] = Stability profile of final formulation at room temperature (FIG. 4); assay type: physicochemical; details: 6% sodium ascorbate/ascorbic acid with 2.3% sodium gentisate in sterile water for injection, compared to formulation of PBS (pH=9.0)
# Experimental: In a 5 mL vial containing [^123I]NaI was added sterile water for injection (SWFI) (50 μL), 50% sulfuric acid in SWFI (50 μL), oxidant (100 μL) (which was prepared fresh via the incubation of acetic acid (0.2 mL) and 30% hydrogen peroxide (0.335 mL) followed by dilution to a final volume of 5 mL with SWFI), acetonitrile (0.5 mL), and the trimethylstannane precursor, Sn-MIP-1095 (compound 9) (100 μL of a 1 mg/mL solution in acetonitrile). The mixture was vortexed for 1 min and allowed to incubate at room temperature for an additional 10 minutes. The reaction was quenched with 200 μL of 0.1 M sodium thiosulfate. The product was then diluted in 18 mL of SWFI and loaded onto a C18 Sep Pak Plus column. The column was washed with 60 mL SWFI to remove unreacted radioiodine and inorganic and organic salts. The Sn-MIP-1095 precursor and ^123I-MIP-1095 ester are retained on the column. ^123I-MIP-1095 ester was eluted from the column using 4 mL of ethanol, while the Sn-MIP-1095 precursor was retained on the column. The resulting solution, containing the ^123I-MIP-1095 ester, was evaporated to dryness under a stream of nitrogen and the residue was dissolved in methylene chloride (0.5 mL) and TFA (2 mL) was added to remove the ester protecting groups. The deprotection solution was incubated at room temperature for 45 minutes. […]
"stability of formulation ([1]; 6% ascorbate/3% gentisate formulation, 250 mCi scale-up runs)","increase in free iodine ([1]; stored at room temperature, evaluated for up to 2 days, free I-123 by HPLC)",stability profile of final formulation [2],Compound
good stability,3-5 % per day,,"O=C(O)CC[C@H](NC(=O)N[C@@H](CCCCNCc1ccc(I)cc1)C(=O)O)C(=O)O [^123I-MIP-1072, ^123I—(S)-2-(3-((S)-1-carboxy-5-(4-iodobenzylamino)pentyl)ureido)pentanedioic Acid]"
,,stable profile,"O=C(O)CC[C@H](NC(=O)N[C@@H](CCCCNC(=O)Nc1ccc(I)cc1)C(=O)O)C(=O)O [^123I-MIP-1095, ^123I—(S)-2-(3-((S)-1-Carboxy-5-(3-(4-iodophenyl)ureido)pentyl)ureido)pentanedioic Acid]"
